Assay results taken from patent US8921559B2, “4-substituted-cyclohexylamino-4-piperidinyl-acetamide antagonists of CCR2” (Janssen Pharmaceutica NV, priority 2010, dated 2014).
Structures can show the parent of a compound that is named as a salt.

Biological target: CCR2 (Homo sapiens (Human), UniProt P41597)
Test: MCP-1 Receptor Binding Assay in THP-1 Cells
Conditions: 0.5 nM 125I labeled MCP-1, 2 hours at 30° C., average of the two most similar values where more than one IC50, read-out: Inhibition of MCP-1 Binding IC50 CCR2 Binding
Protocol: Compounds of the invention were subjected to various representative biological tests. […] MCP-1 Receptor Binding Assay in THP-1 Cells Human monocytic cell line THP-1 cells were obtained from American Type Culture Collection (Manassas, Va., USA). The THP-1 cells were grown in RPMI-1640 (RPMI: Roswell Park Memorial Institute Medium-cell culture growth media) supplemented with 10% fetal bovine serum in a humidified 5% CO2 atmosphere at 37° C. The cell density was maintained between […].
THP-1 (cells were incubated with 0.5 nM ^125I labeled MCP-1 (Perkin-Elmer Life Sciences, Inc. Boston, Mass.) in the presence of varying concentrations of either unlabeled MCP-1 (R & D Systems, Minneapolis, Minn.) or test compound for 2 hours at 30° C. in a 96 well plate. Cells were then harvested onto a filter plate, dried, and 20 μL of Microscint 20 was added to each well. Plates were counted in a TopCount NXT, Microplate Scintillation & Luminescence Counter (Perkin-Elmer Life Sciences, Inc. Boston, Mass.). Blank values (buffer only) were subtracted from all values and drug treated values were compared to vehicle treated values. 1 μM cold MCP-1 was used for nonspecific binding.

CCR2, sequence (P41597 other isoform, or with tags, fused parts or gaps isoform P41597-2): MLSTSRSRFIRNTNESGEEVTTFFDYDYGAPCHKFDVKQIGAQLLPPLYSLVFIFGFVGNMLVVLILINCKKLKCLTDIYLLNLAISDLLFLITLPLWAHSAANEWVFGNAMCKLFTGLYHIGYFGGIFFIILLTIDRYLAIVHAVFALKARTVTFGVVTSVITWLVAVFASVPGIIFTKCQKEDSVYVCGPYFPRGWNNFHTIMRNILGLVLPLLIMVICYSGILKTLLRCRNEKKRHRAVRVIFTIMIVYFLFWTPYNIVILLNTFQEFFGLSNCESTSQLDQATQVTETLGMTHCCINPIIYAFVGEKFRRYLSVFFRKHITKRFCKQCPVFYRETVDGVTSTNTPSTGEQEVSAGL

IC50 [nM]	SMILES
470	NC(=O)C(NC1CCC(c2c[nH]c3ccccc23)CC1)C1CCN(C(=O)Nc2ccc(Cl)c(Cl)c2)CC1 (single isomer, unassigned) [Example 4a, 2-[4-(1H-Indol-3-yl)-cyclohexylamino]-2-[N-(3,4-dichlorophenyl)piperidine-1-carboxamid-4-yl]-acetamide]
8	NC(=O)C(NC1CCC(c2c[nH]c3ccccc23)CC1)C1CCN(C(=O)Nc2ccc(Cl)c(Cl)c2)CC1 (single isomer, unassigned) [Example 4b, 2-[4-(1H-Indol-3-yl)-cyclohexylamino]-2-[N-(3,4-dichlorophenyl)piperidine-1-carboxamid-4-yl]-acetamide]
25	NC(=O)C(NC1CCC(c2c[nH]c3cccnc23)CC1)C1CCN(C(=O)/C=C/c2cc(F)c(F)c(F)c2)CC1 (single isomer, unassigned) [Example 39a, 2-[4-(1H-pyrrolo[3,2-b]pyridin-3-yl)cyclohexyl]amino-2-[1-(trans-3,4,5-trifluorocinnamoyl)-piperidin-4-yl]-acetamide]
600	NC(=O)C(NC1CCC(c2c[nH]c3cccnc23)CC1)C1CCN(C(=O)/C=C/c2cc(F)c(F)c(F)c2)CC1 (single isomer, unassigned) [Example 39b, 2-[4-(1H-pyrrolo[3,2-b]pyridin-3-yl)cyclohexyl]amino-2-[1-(trans-3,4,5-trifluorocinnamoyl)-piperidin-4-yl]-acetamide]
405	NC(=O)C(NC1CCC(c2c[nH]c3ccncc23)CC1)C1CCN(C(=O)/C=C/c2ccc(F)cc2)CC1 (single isomer, unassigned) [Example 47a, 2-[4-(1H-pyrrolo[3,2-c]pyridin-3-yl)cyclohexyl]amino-2-[1-(trans-4-fluorocinnamoyl)-piperidin-4-yl]-acetamide]
641	NC(=O)C(NC1CCC(c2c[nH]c3ccncc23)CC1)C1CCN(C(=O)/C=C/c2ccc(F)cc2)CC1 (single isomer, unassigned) [Example 47b, 2-[4-(1H-pyrrolo[3,2-c]pyridin-3-yl)cyclohexyl]amino-2-[1-(trans-4-fluorocinnamoyl)-piperidin-4-yl]-acetamide]
21	NC(=O)C(NC1CCC(c2c[nH]c3ccccc23)CC1)C1CCN(C(=O)/C=C/c2ccc(F)c(F)c2)CC1 (stereo not drawn) [Example 5, 2-[4-(1H-Indol-3-yl)-cyclohexylamino]-2-[1-(trans-3,4-difluorocinnamoyl)-piperidin-4-yl]-acetamide]
19	NC(=O)C(NC1CCC(c2c[nH]c3ccccc23)CC1)C1CCN(C(=O)/C=C/c2ccc(F)cc2)CC1 (stereo not drawn) [Example 6, 2-[4-(1H-Indol-3-yl)-cyclohexylamino]-2-[1-(trans-4-fluorocinnamoyl)-piperidin-4-yl]-acetamide]
23	NC(=O)C(NC1CCC(c2c[nH]c3ccccc23)CC1)C1CCN(C(=O)/C=C/c2cccc(F)c2)CC1 (stereo not drawn) [Example 7, 2-[4-(1H-Indol-3-yl)-cyclohexylamino]-2-[1-(trans-3-fluorocinnamoyl)-piperidin-4-yl]-acetamide]
270	NC(=O)C(NC1CCC(c2c[nH]c3ccccc23)CC1)C1CCN(C(=O)/C=C/c2ccccc2F)CC1 (stereo not drawn) [Example 8, 2-[4-(1H-Indol-3-yl)-cyclohexylamino]-2-[1-(trans-2-fluorocinnamoyl)-piperidin-4-yl]-acetamide]
130	NC(=O)C(NC1CCC(c2c[nH]c3ccccc23)CC1)C1CCN(C(=O)Nc2ccc(C(F)(F)F)cc2)CC1 (stereo not shown) [Example 9, 2-[4-(1H-Indol-3-yl)-cyclohexylamino]-2-[N-(4-{trifluoromethyl}-phenyl)piperidine-1-carboxamid-4-yl]-acetamide]
75	NC(=O)C(NC1CCC(c2c[nH]c3ccccc23)CC1)C1CCN(C(=O)/C=C/c2cccc(C(F)(F)F)c2)CC1 (stereo not drawn) [Example 10, 2-[4-(1H-Indol-3-yl)-cyclohexylamino]-2-[1-(trans-3-{trifluoromethyl}-cinnamoyl)piperidin-4-yl]-acetamide]
264	NC(=O)C(NC1CCC(c2c[nH]c3ccccc23)CC1)C1CCN(C(=O)Nc2ccc(OC(F)(F)F)cc2)CC1 (stereo not shown) [Example 11, 2-[4-(1H-Indol-3-yl)-cyclohexylamino]-2-[N-(4-{trifluoromethoxy}-phenyl)piperidine-1-carboxamid-4-yl]-acetamide]
120	NC(=O)C(NC1CCC(c2c[nH]c3ccccc23)CC1)C1CCN(C(=O)/C=C/c2ccc3c(c2)CCC3)CC1 (stereo not drawn) [Example 12, 2-[4-(1H-Indol-3-yl)-cyclohexylamino]-2-[1-(trans-3-indan-5-ylprop-2-enoyl)piperidin-4-yl]-acetamide]
136	NC(=O)C(NC1CCC(c2c[nH]c3ccccc23)CC1)C1CCN(C(=O)/C=C/c2ccc(C(F)(F)F)cc2)CC1 (stereo not drawn) [Example 13, 2-[4-(1H-Indol-3-yl)-cyclohexylamino]-2-[1-(trans-4-{trifluoromethyl}-cinnamoyl)piperidin-4-yl]-acetamide]
130	NC(=O)C(NC1CCC(c2c[nH]c3ccccc23)CC1)C1CCN(C(=O)/C=C/c2ccc(Cl)cc2)CC1 (stereo not drawn) [Example 14, 2-[4-(1H-Indol-3-yl)-cyclohexylamino]-2-[1-(trans-4-chloro-cinnamoyl)piperidin-4-yl]-acetamide]
149	NC(=O)C(NC1CCC(c2c[nH]c3ccccc23)CC1)C1CCN(C(=O)/C=C/c2ccc3c(c2)CCO3)CC1 (stereo not drawn) [Example 15, 2-[4-(1H-Indol-3-yl)-cyclohexylamino]-2-[1-(trans-3-(2,3-dihydrobenzofuran-5-yl)prop-2-enoyl)piperidin-4-yl]-acetamide]
150	NC(=O)C(NC1CCC(c2c[nH]c3ccccc23)CC1)C1CCN(C(=O)Nc2cccc(C(F)(F)F)c2)CC1 (stereo not shown) [Example 16, 2-[4-(1H-Indol-3-yl)-cyclohexylamino]-2-[N-(3-{trifluoromethyl}-phenyl)piperidine-1-carboxamid-4-yl]-acetamide]
177	NC(=O)C(NC1CCC(c2c[nH]c3ccccc23)CC1)C1CCN(C(=O)/C=C/c2ccc3c(c2)OC(F)(F)O3)CC1 (stereo not drawn) [Example 17, 2-[4-(1H-Indol-3-yl)-cyclohexylamino]-2-[1-(trans-3-(2,2-difluoro-1,3-benzodioxol-5-yl)prop-2-enoyl)piperidin-4-yl]-acetamide]
190	NC(=O)C(NC1CCC(c2c[nH]c3ccccc23)CC1)C1CCN(C(=O)/C=C/c2ccccc2)CC1 (stereo not drawn) [Example 18, 2-[4-(1H-Indol-3-yl)-cyclohexylamino]-2-[1-(trans-cinnamoyl)piperidin-4-yl]-acetamide]
58	CCOC(=O)c1cccc(NC(=O)N2CCC(C(NC3CCC(c4c[nH]c5ccccc45)CC3)C(N)=O)CC2)c1 (stereo not shown) [Example 19, 2-[4-(1H-Indol-3-yl)-cyclohexylamino]-2-[N-(3-{ethoxycarbonyl}-phenyl)piperidine-1-carboxamid-4-yl]-acetamide]
370	NC(=O)C(NC1CCC(c2c[nH]c3ccccc23)CC1)C1CCN(C(=O)Nc2cccc(F)c2)CC1 (stereo not shown) [Example 20, 2-[4-(1H-Indol-3-yl)-cyclohexylamino]-2-[N-(3-fluorophenyl)piperidine-1-carboxamid-4-yl]-acetamide]
492	NC(=O)C(NC1CCC(c2c[nH]c3ccccc23)CC1)C1CCN(C(=O)/C=C/c2ccc(OC(F)(F)F)cc2)CC1 (stereo not drawn) [Example 21, 2-[4-(1H-Indol-3-yl)-cyclohexylamino]-2-[1-(trans-4-(trifluoromethoxy)cinnamoyl)piperidin-4-yl]-acetamide]
553	CCOC(=O)c1ccc(NC(=O)N2CCC(C(NC3CCC(c4c[nH]c5ccccc45)CC3)C(N)=O)CC2)cc1 (stereo not shown) [Example 22, 2-[4-(1H-Indol-3-yl)-cyclohexylamino]-2-[N-(4-{ethoxycarbonyl}-phenyl)piperidine-1-carboxamid-4-yl]-acetamide]
602	NC(=O)C(NC1CCC(c2c[nH]c3ccccc23)CC1)C1CCN(C(=O)/C=C/c2ccc3c(c2)OCCO3)CC1 (stereo not drawn) [Example 23, 2-[4-(1H-Indol-3-yl)-cyclohexylamino]-2-[1-(trans-3-[2,3-dihydro-1,4-benzodioxin-7-yl]prop-2-enoyl)piperidin-4-yl]-acetamide]
390	COC(=O)C(N[C@H]1CC[C@H](c2c[nH]c3ccccc32)CC1)C1CCN(C(=O)/C=C/c2cc(F)cc(F)c2)CC1 (stereo partly drawn) [Example 24, Methyl 2-[4-(1H-indol-3-yl)-trans-cyclohexylamino]-2-[1-(trans-3,5-difluorocinnamoyl)piperidin-4-yl]-acetate]
220	O=C(O)C(N[C@H]1CC[C@H](c2c[nH]c3ccccc32)CC1)C1CCN(C(=O)/C=C/c2cc(F)cc(F)c2)CC1 (stereo partly drawn) [Example 25, 2-[4-(1H-Indol-3-yl)-trans-cyclohexylamino]-2-[1-(trans-3,5-difluorocinnamoyl)-piperidin-4-yl]-acetic acid hydrochloride]
20	O=C(O)C(N[C@H]1CC[C@H](c2c[nH]c3ccccc32)CC1)C1CCN(C(=O)/C=C/c2cc(F)c(F)c(F)c2)CC1 (stereo partly drawn) [Example 26, 2-[4-(1H-Indol-3-yl)-cyclohexylamino]-2-[1-(trans-3,4,5-trifluorocinnamoyl)-piperidin-4-yl]-acetic acid hydrochloride]
